Source: ChEMBL document CHEMBL6083197, “Design, synthesis, inhibitory activity, and molecular simulations study for d-glucose-conjugated thioureas containing pyrimidine ring as multitarget inhibitors against α-amylase, α-glucosidase, DDP-4, and PTP1B in Type 2 diabetes mellitus” (RSC Med Chem, 2024)
In brackets after ≈: the same amount, converted by molar mass. One block for each molecule: values may come before it.

Tests used:
[1] = Inhibition of alpha-amylase (unknown origin) using starch as substrate preincubated for 10 mins followed by substrate addition and measured after 10 mins by DNSA reagent based spectrophotometric assay; design: species or system Homo sapiens
[2] = Inhibition of alpha-glucosidase (unknown origin) using p-nitrophenyl-glucopyranoside as substrate incubated for 10 mins; design: species or system Homo sapiens
[3] = Inhibition of alpha-amylase (unknown origin) using starch as substrate incubated for 10 mins by DNS reagent based spectrometric assay; design: species or system Homo sapiens
Dipeptidyl peptidase 4 [4] = target: T1, Dipeptidyl peptidase 4 (Homo sapiens, UniProt P27487); test: Inhibition of DPP-4 (unknown origin)
T1 sequence (P27487 whole entry): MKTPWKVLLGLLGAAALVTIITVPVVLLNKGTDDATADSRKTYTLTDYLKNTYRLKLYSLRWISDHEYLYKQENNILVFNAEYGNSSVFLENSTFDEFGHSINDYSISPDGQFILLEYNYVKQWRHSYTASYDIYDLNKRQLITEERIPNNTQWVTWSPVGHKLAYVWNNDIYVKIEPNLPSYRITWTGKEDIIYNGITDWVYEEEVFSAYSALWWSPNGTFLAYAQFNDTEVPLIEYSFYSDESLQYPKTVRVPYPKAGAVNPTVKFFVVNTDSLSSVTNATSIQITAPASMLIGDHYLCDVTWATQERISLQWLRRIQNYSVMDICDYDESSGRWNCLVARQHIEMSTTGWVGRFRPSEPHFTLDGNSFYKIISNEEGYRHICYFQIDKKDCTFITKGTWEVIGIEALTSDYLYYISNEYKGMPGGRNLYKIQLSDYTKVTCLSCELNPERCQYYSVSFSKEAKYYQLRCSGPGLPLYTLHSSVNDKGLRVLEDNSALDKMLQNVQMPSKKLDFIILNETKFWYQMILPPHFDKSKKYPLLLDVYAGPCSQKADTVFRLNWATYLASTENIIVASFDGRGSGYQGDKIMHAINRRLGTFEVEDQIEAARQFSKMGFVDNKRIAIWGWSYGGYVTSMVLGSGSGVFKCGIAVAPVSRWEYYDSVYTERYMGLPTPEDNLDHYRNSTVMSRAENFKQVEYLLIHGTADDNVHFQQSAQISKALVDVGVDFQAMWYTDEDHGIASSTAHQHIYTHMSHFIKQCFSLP

Dipeptidyl peptidase 4 [5] = target: T1, Dipeptidyl peptidase 4; test: Inhibition of recombinant human DPP-4 using Gly-Pro-AMC as substrate by fluorometric assay
[6] = Inhibition of alpha-amylase (unknown origin) using starch as substrate preincubated for 10 mins followed by substrate addition and measured after 10 mins by 3, 5-dinitrosalicylic acid reagent based microplate reader assay
[7] = Inhibition of alpha-glucosidase (unknown origin) using p-nitrophenyl-alpha-D-glucoside as substrate preincubated for 5 mins followed by substrate addition and measured after 20 mins by microplate reader assay

SMILES: O=C(SC1=NC(c2ccc(Cl)cc2)=CC(c2ccc([N+](=O)[O-])cc2)N1)c1ccccc1CN1C(=O)c2ccccc2C1=O (configuration not stated)
IC50 (Dipeptidyl peptidase 4 [5]): 0.00051 µM

SMILES: C[C@H]1O[C@H](O[C@H]2[C@H](O)[C@@H](O)[C@@H](O[C@H]3[C@H](O)[C@@H](O)C(O)O[C@@H]3CO)O[C@@H]2CO)[C@H](O)[C@@H](O)[C@@H]1N[C@H]1C=C(CO)[C@@H](O)[C@H](O)[C@H]1O (some centres not stated) [ACARBOSE]
IC50 [6]: 9.32 µM
IC50 [7]: 7.2 µM

More lines, now with the values ahead:

IC50 [1]: 24.23 µg/mL (≈ 50.3 µM)
SMILES: CCOC(=O)C1=C(C)NC(=O)NC1c1ccc(Nc2cccc3c2C(=O)c2ccccc2C3=O)cc1 (configuration not stated)

IC50 [2]: 55.98 µg/mL (≈ 157 µM)
IC50 [3]: 49.5 µg/mL (≈ 139 µM)
SMILES: CN(C)/C(N)=N/c1nc(-c2ccccc2)cc(-c2c[nH]c3ccccc23)n1

IC50 (Dipeptidyl peptidase 4 [4]): 0.0029 µM
SMILES: Nc1nc(NC2=NC(c3ccccc3)=CC(c3cccc([N+](=O)[O-])c3)N2)nc(N2CCOCC2)n1 (configuration not stated)
